From patent publication US20260209189A1, “ISOXAZOLINE-SUBSTITUTED BENZAMIDE COMPOUND AND APPLICATION THEREOF” (priority 2022, published 2026)

Assays:
Type in all cases: in vivo
Chilo suppressalis = test: Insecticidal activity assay, water bamboo leaf dip, 4th instar larvae; details: liquid concentration 0.4 ppm, 48 h
Method: (§1) The compound of the present invention was dissolved in acetone, and then diluted with water into liquids with gradients of different concentrations (ppm). Corn leaves were soaked in liquids of different concentrations for about 20 seconds, air-dried and then placed in petri dishes where 3rd instar Spodoptera frugiperda were placed, respectively; kale leaves were soaked in liquids of different concentrations for about 20 seconds, air-dried and then placed in petri dishes where 3rd instar Spodoptera frugiperda were placed, respectively; peanut leaves were soaked in liquids of different concentrations for about 20 seconds, air-dried and then placed in petri dishes where Tetranychus urticae (adult mite) and Aphis craccivora (adult aphid) were placed, respectively; water bamboo leaves were soaked in liquids of different concentrations for about 20 seconds, air-dried and then placed in petri dishes where 4th instar Chilo suppressalis were placed, respectively. Each petri dish was placed with 10 insects, covered and then stored at 25° C. in a constant temperature room. The number of dead insects were checked after 48 h. The dead insect rate was calculated by the formula: Death rate (%)=(Number of dead insects/Number of test insects)×100. Furthermore, the experiment was conducted in two replications.

Spodoptera frugiperda [1] = test: Insecticidal activity assay, corn leaf dip, 3rd instar larvae; details: liquid concentration 0.3 ppm, 48 h
Method: as §1

Spodoptera exigua = test: Insecticidal activity assay, kale leaf dip, 3rd instar larvae; details: liquid concentration 0.3 ppm, 48 h
Aphis craccivora = test: Insecticidal activity assay, peanut leaf dip, adult aphid; details: liquid concentration 8.1 ppm, 48 h
Method: as §1

Tetranychus urticae = test: Insecticidal activity assay, peanut leaf dip, adult mite; details: 48 h
Method: as §1

Spodoptera frugiperda [2] = test: Assay of insecticidal activity of compositions (synergism), 3rd instar; details: A 0.1 ppm
Method: as §1
• Test targets: Spodoptera frugiperda (3rd instar) and Aphis gossypii (adult aphid) […]
(§2) Different ratios within the selected ratio range were set for toxicity determination, and the optimal ratio was selected according to synergistic effects. When the synergistic effect >0, it indicated a synergistic effect; when the synergistic effect is close to 0, it indicated an addition effect; when the synergistic effect <0, it indicated an antagonistic effect.
(§3) [formula] • wherein, P1, P2—Death rate by each individual agent in a mixed formulation.

Aphis gossypii = test: Assay of insecticidal activity of compositions (synergism), zucchini leaves, adult aphid
Method: as §1
• Test targets: Spodoptera frugiperda (3rd instar) and Aphis gossypii (adult aphid)
Referring to the above-mentioned Insecticidal activity assay, when the test target was Aphis gossypii, the zucchini leaves were selected.
as §2, §3

COC(=O)C(C)NC(=O)c1ccc(C2=NOC(c3cc(Cl)c(Cl)c(C(F)(F)F)c3)(C(F)(F)F)C2)cc1C(F)(F)F (mixture of isomers) [147 (2R)]
Death rate (Chilo suppressalis): 100% | Death rate (Spodoptera frugiperda [1]): 100% | Death rate (Spodoptera exigua): 100% | Death rate (Aphis craccivora): 100% | Death rate (Tetranychus urticae; liquid concentration 8.1 ppm): 100%

COC(=O)C(C)NC(=O)c1ccc(C2=NOC(c3cc(Cl)c(F)c(C(F)(F)F)c3)(C(F)(F)F)C2)cc1C [Compound 2 (5S, 2R)]
Death rate (Chilo suppressalis): 100% | Death rate (Spodoptera frugiperda [1]): 100% | Death rate (Spodoptera exigua): 100% | Death rate (Aphis craccivora): 100% | Death rate (Tetranychus urticae; liquid concentration 0.9 ppm): 100%

COC(=O)CNC(=O)c1ccc(C2=NO[C@@](c3cc(Cl)c(Cl)c(C(F)(F)F)c3)(C(F)(F)F)C2)cc1C [188 (5S)]
Death rate (Chilo suppressalis): 100% | Death rate (Spodoptera frugiperda [1]): 100% | Death rate (Spodoptera exigua): 100% | Death rate (Aphis craccivora): 100% | Death rate (Tetranychus urticae; liquid concentration 8.1 ppm): 100%

CCc1cc(C2=NOC(c3cc(Cl)c(Cl)c(C(F)(F)F)c3)(C(F)(F)F)C2)ccc1C(=O)NC(C)C(=O)OC (mixture of isomers) [140 (2R)]
Death rate (Chilo suppressalis): 100% | Death rate (Spodoptera frugiperda [1]): 100% | Death rate (Spodoptera exigua): 100% | Death rate (Aphis craccivora): 100% | Death rate (Tetranychus urticae; liquid concentration 8.1 ppm): 100%

COC(=O)[C@@H](C)NC(=O)c1ncc(C2=NOC(c3cc(Cl)c(Cl)c(C(F)(F)F)c3)(C(F)(F)F)C2)cc1C (stereo partly drawn) [Compound 154 (2R)]
Death rate (Chilo suppressalis): 100% | Death rate (Spodoptera frugiperda [1]): 100% | Death rate (Spodoptera exigua): 77% | Death rate (Aphis craccivora): 93% | Death rate (Tetranychus urticae; liquid concentration 0.9 ppm): 100%

COC(=O)C(C)NC(=O)c1ccc(C2=NOC(c3cc(Cl)cc(C(F)(F)F)c3)(C(F)(F)F)C2)cc1C (mixture of isomers) [1 (2R)]
Death rate (Chilo suppressalis): 100% | Death rate (Spodoptera frugiperda [1]): 100% | Death rate (Spodoptera exigua): 90% | Death rate (Aphis craccivora): 83% | Death rate (Tetranychus urticae; liquid concentration 8.1 ppm): 83%

COC(=O)[C@@H](C)NC(=O)c1ccc(C2=NOC(c3cc(Cl)cc(Cl)c3)(C(F)(F)F)C2)cc1C (stereo partly shown) [Control compound A, reference compound]
Death rate (Chilo suppressalis): 40% | Death rate (Spodoptera frugiperda [1]): 70% | Death rate (Spodoptera exigua): 30% | Death rate (Aphis craccivora): 20% | Death rate (Tetranychus urticae; liquid concentration 8.1 ppm): 25%

COC(=O)C(C)NC(=O)c1ccc(C2=NOC(c3cc(Cl)c(F)c(C(F)(F)F)c3)(C(F)(F)F)C2)cc1C (mixture of isomers) [2 (2R)]
Death rate (Chilo suppressalis): 100% | Death rate (Spodoptera frugiperda [1]): 100% | Death rate (Spodoptera exigua): 90% | Death rate (Aphis craccivora): 90% | Death rate (Tetranychus urticae; liquid concentration 0.9 ppm): 100%

COC(=O)[C@@H](C)NC(=O)c1ccc(C2=NOC(c3cc(Cl)c(Cl)c(C(F)(F)F)c3)(C(F)(F)F)C2)cc1C (stereo partly drawn) [Compound 3 (2R)]
Death rate (Chilo suppressalis): 100% | Death rate (Spodoptera frugiperda [1]): 100% | Death rate (Spodoptera exigua): 77% | Death rate (Aphis craccivora): 93% | Death rate (Tetranychus urticae; liquid concentration 0.9 ppm): 100% | Death rate by individual A (Spodoptera frugiperda [2]): 72% | Death rate by individual A (Aphis gossypii; A 0.1 ppm): 38%

CC(C)=NOC(=O)[C@@H](C)NC(=O)c1ccc(C2=NOC(c3cc(Cl)c(Cl)c(C(F)(F)F)c3)(C(F)(F)F)C2)cc1C (stereo partly drawn) [Compound 80 (2R)]
Death rate (Chilo suppressalis): 100% | Death rate (Spodoptera frugiperda [1]): 100% | Death rate (Spodoptera exigua): 100% | Death rate (Aphis craccivora): 100% | Death rate (Tetranychus urticae; liquid concentration 8.1 ppm): 100%

CC(c1ccc(C(F)(F)F)nc1)S(C)(=O)=NC#N (stereo not shown) [Sulfoxaflor, reference compound]
pest or weed control at 2 µg/mL (Aphis gossypii; in Cucurbita pepo, 48 h, B 2 ppm, read-out: Death rate by individual B): 46%

COC(=O)[C@@H](C)NC(=O)c1ccc(C2=NOC(c3cc(Cl)c(Cl)c(C(F)(F)F)c3)(C(F)(F)F)C2)cc1Cl (stereo partly drawn) [Compound 144 (2R)]
Death rate (Chilo suppressalis): 100% | Death rate (Spodoptera frugiperda [1]): 100% | Death rate (Spodoptera exigua): 100% | Death rate (Aphis craccivora): 100% | Death rate (Tetranychus urticae; liquid concentration 8.1 ppm): 100%
